Laboratory results taken from paper PMC7269481, “ZN148 Is a Modular Synthetic Metallo-β-Lactamase Inhibitor That Reverses Carbapenem Resistance in Gram-Negative Pathogens In Vivo” (Antimicrobial Agents and Chemotherapy, 2020).
≈ marks a conversion by molar mass, not a printed value. Entries after “also recorded” stand apart in the source; their conditions may differ.

Columns and labels:
[1] = tested on: NDM-1-producing K. pneumoniae K66-45; assay: Serial passage on increasing meropenem; assay type: cell-based; conditions: for fold increase in meropenem MIC after serial passaging: compared to control culture / original MIC
Protocol: K. pneumoniae K66-45 was passaged in a 96-well microtiter plate with a consistent concentration of ZN148 and increasing concentrations of meropenem. To start the passaging, cation-adjusted Mueller-Hinton broth II medium (Sigma-Aldrich) containing 0.0625 mg/liter (0.5× MIC) and 50 or 100 μM ZN148 was inoculated with 1% of overnight culture, which was grown without selection. Six biological replicates were passaged in parallel, and from each of the six overnight cultures four wells were inoculated, resulting in 24 subcultures for each ZN148 concentration. After 24 h of incubation at 37°C and shaking at 180 rpm, the wells were visually checked for growth.

[2] = Solubility measurement in PBS; assay type: physicochemical
Protocol: The solubility of ZN148 was evaluated in PBS buffer at pH 7.4. Increasing amounts of ZN148 was dissolved in 1.0 ml at room temperature by gentle swirling of the solution in a glass vial. A total of 1.225 g of ZN148 was successfully dissolved in 1.0 ml of PBS buffer, giving a total volume of 1.8 ml. This solution was stable at 4°C for more than 6 weeks without precipitation.

[3] = biological target: T1, recombinant human glyoxylase II (Homo sapiens, UniProt Q16775); assay: Interaction with human glyoxylase II; assay type: biochemical; conditions: 500 μM
T1 construct: purchased R&D Systems
Protocol: Recombinant human glyoxylase II (rHGly II; R&D Systems) was incubated with or without ZN148 (final concentrations of 125, 250, and 500 μM) for 10 and 30 min at 25°C in 50 mM Tris buffer (Merck) supplemented with 250 mM NaCl (pH 7.5). Then, 50 μl of substrate mixture containing 2 mM S-lactoylglutathione and 400 μM 5,5′-dithiobis(2-nitrobenzoic acid) (Sigma-Aldrich) was mixed with 50 μl of the preincubated rHGly II at a final enzyme concentration of 0.2 ng/μl. The initial enzymatic velocity was measured at 405 nm in 96-well plates (Thermo Fisher Scientific, Roskilde, Denmark) at 25°C in a SpectraMax Plus plate reader (Molecular Devices). EDTA (Merck) was included as a control.

[4] = tested on: NDM-1-producing K. pneumoniae 50752501; assay: Murine neutropenic peritonitis model; assay type: in vivo, mice
Protocol: The in vivo efficacy of meropenem (Mylan; Mylan Hospitals, Asker, Norway) in combination with ZN148 were evaluated in a murine neutropenic peritonitis model. Female NRMI mice (Taconic Biosciences, Lille Skensved, Denmark) were rendered neutropenic by intraperitoneal (i.p.) injection with cyclophosphamide (Baxter, Søborg, Denmark) at 4 days (200 mg/kg) and 1 day (100 mg/kg) prior to inoculation. Mice were inoculated i.p. with ∼5 × 10^6 CFU of NDM-1-producing K. pneumoniae 50752501. At 1 h postinoculation, the mice were injected subcutaneously (s.c.) in the neck region with ZN148 corresponding to 10, 33, or 100 mg/kg or vehicle. After 30 min, the mice were injected s.c. with 33 mg/kg meropenem or vehicle. Four mice were included for each treatment regime. At 5 h postinoculation, the mice were anesthetized. Blood was collected from axillary cutdown, and the mice were sacrificed. Subsequently, 2 ml of sterile saline was injected i.p., and the intraperitoneal fluid was sampled. Blood and intraperitoneal fluid were serially diluted in 0.9% NaCl and plated on blood agar plates with 5% horse blood (Statens Serum Institut, Copenhagen, Denmark) for CFU determination. Groups were analyzed with analysis of variance (ANOVA) Dunnett’s multiple-comparison test in Prism 7.04 (GraphPad Software, Inc.). P values of <0.05 were considered statistically significant. All animal experiments were approved by the National Committee of Animal Ethics, Denmark (permission 2014-15-0201-00171), and adhered to the standards of EU Directive 2010/63/EU.

[5] = tested on: K. pneumoniae with VIM (n=17); assay: Meropenem MIC distribution, K. pneumoniae with VIM; assay type: cell-based; conditions: MEM alone or +50 µM ZN148
Protocol: MICs of carbapenems alone and in combination with inhibitors were determined by broth microdilution according to the Clinical and Laboratory Standards Institute (CLSI) guidelines ([48]) using either premade plates (TREK Diagnostic Systems/Thermo Fisher Scientific, East Grinstead, United Kingdom) with meropenem or in-house-prepared plates with meropenem, imipenem, and doripenem. ZN148 and other inhibitors were tested at a fixed concentration of 50 μM. Cation-adjusted Mueller-Hinton medium (TREK Diagnostic Systems/Thermo Fisher Scientific; Becton Dickinson, Franklin Lakes, NJ) were used as growth medium. The plates were incubated for 20 h at 37°C. ZN148, ZN222, ZN223, ZN228, and TPA were initially tested in combination with meropenem using two indicator strains: NDM-1-producing K. pneumoniae ([49], [50]) and VIM-2-producing P. aeruginosa ([51]). The activity of ZN148 were subsequently tested against two extended strain collections: (i) in combination with meropenem against MBL-producing Enterobacterales (n = 62), MBL-producing P. aeruginosa (n = 9) and MBL- and class D carbapenemase-coproducing Enterobacterales (n = 5) from the strain collection at the Norwegian National Advisory Unit on Detection of Antimicrobial Resistance and (ii) in combination with meropenem, imipenem, and doripenem against globally collected MBL-producing E. coli (n = 87), K. pneumoniae (n = 85), P. aeruginosa (n = 52), and A. baumannii (n = 6), MBL- and class A/D carbapenemase-coproducing E. coli (n = 11), K. pneumoniae (n = 15) and A. baumannii (n = 7) at IHMA Europe, Sàrl, Switzerland. E. coli ATCC 25922 and P. aeruginosa ATCC 27853 were used as quality control strains. The MBL inhibitors were also tested for intrinsic antibacterial activity against the strains.

SMILES | maximum meropenem MIC reached by evolved cultures ([1]; 50 µM ZN148, 8 passages) | maximum meropenem MIC reached by evolved cultures ([1]; 100 µM ZN148, 6 passages) | fold increase in meropenem MIC after serial passaging ([1]; in the presence of 50 μM ZN148) | fold increase in meropenem MIC after serial passaging ([1]; in the presence of 100 μM ZN148) | solubility ([2]; PBS buffer, pH 7.4, aqueous buffer, thermodynamic from solid, in phosphate-buffered saline [PBS]) | stability of the solution without precipitation ([2]; at 4°C, 1.225 g in 1.0 ml PBS) | amount dissolved in 1.0 ml of PBS buffer ([2]; pH 7.4, room temperature, total volume 1.8 ml) | inhibitory activity against recombinant human glyoxylase II [3] | CFU with ZN148 alone compared to vehicle ([4]; ZN148 alone, s.c.) | CFU/ml with meropenem + higher ZN148 doses compared to meropenem alone ([4]; meropenem 33 mg/kg + 33 and 100 mg/kg ZN148 s.c.) | CFU/ml in peritoneal fluid compared to meropenem alone ([4]; s.c. meropenem 33 mg/kg + ZN148 10 mg/kg, 5 h postinoculation, P < 0.0001) | CFU/ml in blood compared to meropenem alone ([4]; s.c. meropenem 33 mg/kg + ZN148 10 mg/kg, 5 h postinoculation, P < 0.01) | No. of strains with indicated MIC ([5]; MIC 2 mg/L) | No. of strains with indicated MIC ([5]; MIC 4 mg/L) | No. of strains with indicated MIC ([5]; MIC 8 mg/L) | No. of strains with indicated MIC ([5]; MIC 16 mg/L) | No. of strains with indicated MIC ([5]; MIC 32 mg/L) | No. of strains with indicated MIC ([5]; MIC ≥64 mg/L)
CN(C[C@H](O)[C@@H](O)[C@H](O)[C@H](O)CO)C(=O)c1ccc(CN(Cc2ccccn2)Cc2ccccn2)nc1 [ZN148] | 8 µg/mL | 2 µg/mL | 64 fold | 16 fold | 1220 mg/mL (≈ 2390 mM) | more than 6 weeks | 1.225 g | no inhibition; also recorded: no inhibitory activity | did not result in a reduction in CFU | same effect | significantly lower CFU/ml | significantly lower CFU/ml | – | – | – | – | – | –
C[C@@H](O)[C@H]1C(=O)N2C(C(=O)O)=C(S[C@@H]3CN[C@H](C(=O)N(C)C)C3)[C@H](C)[C@H]12 [meropenem] | – | – | – | – | – | – | – | – | – | – | – | – | 2 | 2 | 1 | 4 | 3 | 5
